The record followed here is patent publication US20260365671A1, “HETEROCYCLIC COMPOUND” (Takeda Pharmaceutical Company Limited, priority 2022, published 2026).

One assay deals with NF-κB pathway. Description: TNF-α assay (THP-1 cells differentiated to macrophages with IFN-γ, NF-κB pathway activated with LPS; ELISA). Type of assay: cell-based, Human. The settings on record: Homo sapiens, THP-1, THP-1 macrophages, compound 30 min, 50 ng/mL LPS 3 hours. How it is done:
(§1) The biological activity of Compound (I) with respect to NLRP3 was determined using the following in vitro methods.
TNF-α Assay (Reported as IC50)
Monocytic THP-1 cells (ATCC: TIB-202) were maintained in accordance with the provider's instructions in RPMI media (Life Technologies, Cat #A10491-01); RPMI was supplemented with 10% heat inactivated fetal bovine serum (Hyclone Cat #SH30396.03). The cells were differentiated into macrophages by the addition of 25 ng/mL IFN-γ for 24 hours at 37 °C/5% CO2. Media was exchanged with fresh media with no FBS. The cells were plated at 40,000 cells per well in 384-well flat-bottom cell culture plates (Costar 3764) containing compounds (added in 1:1000) in a 1:3.16 serial dilution series in DMSO and were incubated for 30 minutes at 37 °C/5% CO2. The NF-κB pathway was activated with the addition of 50 ng/mL LPS and the cells were incubated for 3 hours at 37 °C/5% CO2. At the end of the incubation period, supernatant ([…]) was removed, and […] were monitored using an ELISA (Human TNF-α ELISA, R&D systems, Cat #DY210) according to the manufacturer's instructions.
(§2) The IC50 values were calculated from a plot of percentage of inhibition versus the inhibitor concentration by a logistics curve fit according to: Y=[Bottom+(Top−Bottom)]/(1+10^[(Log IC50−X)·Hill Slope], where Y is the % inhibition at the inhibitor concentration, X, “Bottom” is the lowest inhibition value, i.e., 0%, “Top” is the maximum inhibition value, i.e., 100%, and the “Hill Slope” describes the slope of the sigmoidal curve between the “Bottom” and “Top” values. The curve fitting was conducted with XLfit (ver. 5.5.0.5, ID Business Solutions Limited) or internally developed software.
(§3) Table 2 lists in vitro biological assay data (IL-1β and TNF-α) for the compounds shown in the examples. These assays are described in the section entitled Biological Activity, above.
(In general: ELISA stands for enzyme-linked immunosorbent assay.)

The target in the next assay is T1, NLRP3 inflammasome (Homo sapiens, UniProt Q96P20).
T1 construct: IL-1beta HTRF
Description: IL-1β TR-FRET assay (THP-1 cells differentiated to macrophages with IFN-γ, LPS primed, ATP activated; HTRF). Type of assay: cell-based. The settings on record: THP-1 macrophages, 50 ng/mL LPS priming, compound 30 min, 20 mM ATP 2 hours. How it is done:
as §1
IL-1β TR-FRET Assay (Reported as IC50)
Monocytic THP-1 cells (ATCC: TIB-202) were maintained in accordance with the provider's instructions in RPMI media (Life Technologies, Cat #A10491-01); RPMI was supplemented with 10% heat inactivated fetal bovine serum (Corning, Cat #35-010-CV). The cells were differentiated into macrophages by the addition of 25 ng/mL IFN-γ (PeproTech, Cat #AF300-02-100UG) for 24 hours at 37 °C/5% CO2. Media was exchanged with fresh media with no FBS, and the cells were treated with 50 ng/mL LPS (priming step) (LPS-EK: Invivogen, Cat #tlrl-peklps). The cells were plated at 240,000 cells per well in 384-well flat-bottom cell culture plates (FALCON, Cat #353962) and were incubated for 24 hours at 37 °C/5% CO2. Compounds were serially diluted (half log dilutions) with DMSO and were finally diluted with Media with no FBS. The compounds were added to the cells in 384-well plates (added in 1:3) and then the plates were incubated for 30 minutes at 37 °C/5% CO2. The NLRP3 inflammasome was activated with the addition of 20 mM ATP (Sigma Cat #A3377-25G) and the cells were incubated for 2 hours at 37 °C/5% CO2. At the end of the incubation period, 30 μL supernatant was transferred to another 384-well plate and mixed on a plate shaker for 1 minutes. The supernatant was mixed with HTRF Antibody (Human IL1 beta kit, Cisbio, 62HIL1BPEH) in assay plates (Greiner Bio-One, Cat #784075) and the assay plates were incubated in shading box at room temperature for 16-24 hours. HTRF signal was measured by EnVision (Perkinelmer) in accordance with the manufacturer's instructions.
as §2, §3
For orientation: Time-resolved FRET reads energy transfer from a long-lived donor to a nearby acceptor.

T1 sequence (Q96P20 whole entry): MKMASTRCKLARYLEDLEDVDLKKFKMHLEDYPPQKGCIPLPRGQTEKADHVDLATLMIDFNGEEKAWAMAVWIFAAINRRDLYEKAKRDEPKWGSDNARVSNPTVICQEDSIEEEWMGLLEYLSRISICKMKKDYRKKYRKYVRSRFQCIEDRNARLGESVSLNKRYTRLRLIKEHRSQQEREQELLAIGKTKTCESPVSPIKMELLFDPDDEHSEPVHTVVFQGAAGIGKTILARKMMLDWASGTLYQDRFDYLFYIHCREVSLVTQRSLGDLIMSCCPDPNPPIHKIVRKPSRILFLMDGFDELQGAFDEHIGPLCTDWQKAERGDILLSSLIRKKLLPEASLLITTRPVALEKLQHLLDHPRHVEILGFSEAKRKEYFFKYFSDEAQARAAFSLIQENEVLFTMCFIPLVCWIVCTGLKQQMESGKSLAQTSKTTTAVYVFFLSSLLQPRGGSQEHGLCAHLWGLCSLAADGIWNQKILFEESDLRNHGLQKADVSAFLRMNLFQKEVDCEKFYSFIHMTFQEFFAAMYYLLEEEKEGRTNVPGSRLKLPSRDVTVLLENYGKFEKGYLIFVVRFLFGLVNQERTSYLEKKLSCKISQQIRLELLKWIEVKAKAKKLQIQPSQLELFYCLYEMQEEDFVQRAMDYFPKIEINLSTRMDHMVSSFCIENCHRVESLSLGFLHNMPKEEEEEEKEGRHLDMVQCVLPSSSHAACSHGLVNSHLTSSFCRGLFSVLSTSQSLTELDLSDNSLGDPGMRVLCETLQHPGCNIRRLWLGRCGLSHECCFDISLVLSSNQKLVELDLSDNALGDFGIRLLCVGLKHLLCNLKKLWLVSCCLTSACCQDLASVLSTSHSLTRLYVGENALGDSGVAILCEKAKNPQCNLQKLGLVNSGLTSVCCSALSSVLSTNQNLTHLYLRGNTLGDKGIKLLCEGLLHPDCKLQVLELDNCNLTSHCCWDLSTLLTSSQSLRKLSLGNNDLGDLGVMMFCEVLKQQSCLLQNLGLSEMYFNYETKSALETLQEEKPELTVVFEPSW

As usually defined, the IC50 is the point on the concentration scale where inhibition reaches its midpoint. Consider `CCN1C[C@H](Nc2nc3nn(-c4c(C)cc(C)cc4O)cc3s2)[C@@H](F)C1` (racemic) [Example 21, racemic mixture of 2-(5-{[(3R,4R)-1-ethyl-4-fluoropyrrolidin-3-yl]amino}-2H-pyrazolo[3,4-d][1,3]thiazol-2-yl)-3,5-dimethylphenol and 2-(5-{[(3S,4S)-1-ethyl-4-fluoropyrrolidin-3-yl]amino}-2H-pyrazolo[3,4-d][1,3]thiazol-2-yl)-3,5-dimethylphenol], for which the values for the IC50 with NF-κB pathway and against NLRP3 inflammasome were over 30000 nM and 160 nM, respectively.

On to `Cc1cc(C)c(-n2cc3sc(N[C@H]4CN(C)C[C@H]4F)nc3n2)c(O)c1` (racemic) [Example 22, racemic mixture of 2-(5-{[(3R,4S)-4-fluoro-1-methylpyrrolidin-3-yl]amino}-2H-1-pyrazolo[3,4-d][1,3]thiazol-2-yl)-3,5-dimethyl-phenol and 2-(5-{[(3S,4R)-4-fluoro-methylpyrrolidin-3-yl]amino}-2H-pyrazolo[3,4-d][1,3]thiazol-2-yl)-3,5-dimethylphenol], for which the results for the IC50 in the assay with NF-κB pathway and on NLRP3 inflammasome were over 30000 nM and 1100 nM, respectively.

Turning to `CCN1C[C@@H](F)[C@@H](Nc2nc3nn(-c4c(C)cc(C)cc4O)cc3s2)C1` (racemic) [Example 23, racemic mixture of 2-(5-{[(3R,4S)-1-ethyl-4-fluoropyrrolidin-3-yl]amino}-2H-pyrazolo[3,4-d][1,3]thiazol-2-yl)-3,5-dimethylphenol and 2-(5-{[(3S,4R)-1-ethyl-4-fluoropyrrolidin-3-yl]amino}-2H-pyrazolo[3,4-d][1,3]thiazol-2-yl)-3,5-dimethylphenol], the figures for the IC50 in the assay with NF-κB pathway and on NLRP3 inflammasome were over 30000 nM and 210 nM, respectively.

Consider `CC(=O)N1C[C@H](Nc2nc3nn(-c4c(C)cc(C)cc4O)cc3s2)[C@@H](F)C1` (racemic) [Example 104, racemic mixture of 1-[(3R,4R)-3-fluoro-4-{[2-(2-hydroxy-4,6-dimethylphenyl)-2H-pyrazolo[3,4-d][1,3]thiazol-5-yl]amino}pyrrolidin-1-yl]ethan-1-one and 1-[(3S,4S)-3-fluoro-4-{[2-(2-hydroxy-4,6-dimethylphenyl)-2H-pyrazolo[3,4-d][1,3]thiazol-5-yl]amino}pyrrolidin-1-yl] ethan-1-one], for which the IC50 with NF-κB pathway is over 30000 nM; at NLRP3 inflammasome it was 440 nM.

Take `CCC(=O)N1C[C@H](Nc2nc3nn(-c4c(C)cc(C)cc4O)cc3s2)[C@@H](F)C1` (racemic) [Example 105, racemic mixture of 1-[(3R,4R)-3-fluoro-4-{[2-(2-hydroxy-4,6-dimethylphenyl)-2H-pyrazolo[3,4-d][1,3]thiazol-5-yl]amino}pyrrolidin-1-yl]propan-1-one and 1-[(3S,4S)-3-fluoro-4-{[2-(2-hydroxy-4,6-dimethylphenyl)-2H-pyrazolo[3,4-d][1,3]thiazol-5-yl]amino}pyrrolidin-1-yl]propan-1-one]: the IC50 in the assay on NF-κB pathway was over 30000 nM; at NLRP3 inflammasome, 310 nM.

Turning to `Cc1cc(C)c(-n2cc3sc(N[C@H]4CN(C(=O)CC5CC5)C[C@@H]4F)nc3n2)c(O)c1` (racemic) [Example 106, racemic mixture of 2-cyclopropyl-1-[(3R,4R)-3-fluoro-4-{[2-(2-hydroxy-4,6-dimethylphenyl)-2H-pyrazolo[3,4-d][1,3]thiazol-5-yl]amino}pyrrolidin-1-yl]ethan-1-one and 2-cyclopropyl-1-[(3S,4S)-3-fluoro-4-{[2-(2-hydroxy-4,6-dimethylphenyl)-2H-pyrazolo[3,4-d][1,3]thiazol-5-yl]amino}pyrrolidin-1-yl]ethan-1-one], the IC50 with NF-κB pathway is over 30000 nM; on NLRP3 inflammasome, 310 nM.

Turning to `CNC(=O)N1C[C@H](Nc2nc3nn(-c4c(C)cc(C)cc4O)cc3s2)[C@@H](F)C1` (racemic) [Example 119, racemic mixture of (3R,4R)-3-fluoro-4-{[2-(2-hydroxy-4,6-dimethylphenyl)-2H-pyrazolo[3,4-d][1,3]thiazol-5-yl]amino}-N-methylpyrrolidine-1-carboxamide and (3S,4S)-3-fluoro-4-{[2-(2-hydroxy-4,6-dimethylphenyl)-2H-pyrazolo[3,4-d][1,3]thiazol-5-yl]amino}-N-methylpyrrolidine-1-carboxamide], the IC50 in the assay with NF-κB pathway is over 30000 nM; at NLRP3 inflammasome it was 370 nM.

Consider `Cc1cc(C)c(-n2cc3sc(N[C@H]4COC[C@@H]4F)nc3n2)c(O)c1` (racemic) [Example 121, racemic mixture of 2-(5-{[(3R,4S)-4-fluorooxolan-3-yl]amino}-2H-pyrazolo[3,4-d][1,3]thiazol-2-yl)-3,5-dimethylphenol and 2-(5-{[(3S,4R)-4-fluorooxolan-3-yl]amino}-2H-pyrazolo[3,4-d][1,3]thiazol-2-yl)-3,5-dimethylphenol], for which the results for the 50% inhibitory concentration (IC50) with NF-κB pathway and against NLRP3 inflammasome were over 10000 nM and 590 nM, respectively.

Regarding `Cc1cc(C)c(-n2cc3sc(N[C@H]4COC[C@H]4F)nc3n2)c(O)c1` (racemic) [Example 122, racemic mixture of 2-(5-{[(3R,4R)-4-fluorooxolan-3-yl]amino}-2H-pyrazolo[3,4-d][1,3]thiazol-2-yl)-3,5-dimethylphenol and 2-(5-{[(3S,4S)-4-fluorooxolan-3-yl]amino}-2H-pyrazolo[3,4-d][1,3]thiazol-2-yl)-3,5-dimethylphenol], the IC50 is over 30000 nM with NF-κB pathway and 580 nM on NLRP3 inflammasome.

In the case of `Cc1cc(C)c(-n2cc3sc(N[C@H]4CN(C(=O)C(C)(C)O)C[C@@H]4F)nc3n2)c(O)c1` (racemic) [Example 123, racemic mixture of 1-[(3R,4R)-3-fluoro-4-{[2-(2-hydroxy-4,6-dimethylphenyl)-2H-pyrazolo[3,4-d][1,3]thiazol-5-yl]amino}pyrrolidin-1-yl]-2-hydroxy-2-methylpropan-1-one and 1-[(3S,4S)-3-fluoro-4-{[2-(2-hydroxy-4,6-dimethylphenyl)-2H-pyrazolo[3,4-d][1,3]thiazol-5-yl]amino}pyrrolidin-1-yl]-2-hydroxy-2-methylpropan-1-one], the IC50 in the assay on NF-κB pathway is over 30000 nM; on NLRP3 inflammasome it was 390 nM.

Regarding `Cc1cc(C)c(-n2cc3sc(N[C@H]4CN(C(=O)C5(O)CC5)C[C@@H]4F)nc3n2)c(O)c1` (racemic) [Example 124, racemic mixture of [(3R,4R)-3-fluoro-4-{[2-(2-hydroxy-4,6-dimethylphenyl)-2H-pyrazolo[3,4-d][1,3]thiazol-5-yl]amino}pyrrolidin-1-yl](1-hydroxycyclopropyl) methanone and [(3S,4S)-3-fluoro-4-{[2-(2-hydroxy-4,6-dimethylphenyl)-2H-pyrazolo[3,4-d][1,3]thiazol-5-yl]amino}pyrrolidin-1-yl](1-hydroxycyclopropyl)methanone], the IC50 is over 30000 nM in the assay with NF-κB pathway and 340 nM against NLRP3 inflammasome.

As to `Cc1cc(C)c(-n2cc3sc(N[C@H]4CN(C(=O)C5(C#N)CC5)C[C@@H]4F)nc3n2)c(O)c1` (racemic) [Example 125, racemic mixture of 1-[(3R,4R)-3-fluoro-4-{[2-(2-hydroxy-4,6-dimethylphenyl)-2H-pyrazolo[3,4-d][1,3]thiazol-5-yl]amino}pyrrolidine-1-carbonyl]cyclopropane-1-carbonitrile and 1-[(3S,4S)-3-fluoro-4-{[2-(2-hydroxy-4,6-dimethylphenyl)-2H-pyrazolo[3,4-d][1,3]thiazol-5-yl]amino}pyrrolidine-1-carbonyl]cyclopropane-1-carbonitrile], the IC50 in the assay with NF-κB pathway was over 30000 nM; at NLRP3 inflammasome, 460 nM.
